Assay: Phase 1 multiple dose (Part 2): safety and tolerability in healthy adults
Type: in vivo, human
Settings: 1.25 mg qw fasted
Experimental: All volunteers were followed up for 4 weeks and safety and tolerability were continuously assessed throughout the study. All adverse events (AEs) were recorded from the time of consent to the completion visit and were graded using the DAIDS toxicity grading scale. Volunteers also underwent physical examinations, electrocardiograms, vital sign checks and clinical laboratory parameters (chemistry, haematology, urinalysis).

CCCCOc1nc(N)c2[nH]cc(Cc3ccc(CN4CCCC4)cc3)c2n1 [Compound 4]
lab toxicity: Amylase (U/L), upwards, Grade 2: 0 n (%) | lab toxicity: Aspartate aminotransferase (U/L), upwards, Grade 1: 1 (16.7%) n (%) | lab toxicity: Aspartate aminotransferase (U/L), upwards, Grade 2: 1 (16.7%) n (%) | lab toxicity: Cholesterol (mmol/L), upwards, Grade 1: 1 (16.7%) n (%) | lab toxicity: Creatine kinase (U/L), upwards, Grade 3: 1 (16.7%) n (%) | lab toxicity: Creatine kinase (U/L), upwards, Grade 4: 1 (16.7%) n (%) | lab toxicity: GFR from creatinine adjusted for BSA (mL/s/1.73m^2), downwards, Grade 2: 1 (16.7%) n (%) | lab toxicity: Glucose (mmol/L), upwards, Grade 1: 4 (66.7%) n (%) | lab toxicity: Glucose (mmol/L), upwards, Grade 2: 2 (33.3%) n (%) | lab toxicity: Potassium (mmol/L), upwards, Grade 1: 1 (16.7%) n (%) | lab toxicity: Sodium (mmol/L), upwards, Grade 1: 0 n (%) | lab toxicity: Triglycerides (mmol/L), upwards, Grade 1: 1 (16.7%) n (%) | lab toxicity: Triglycerides (mmol/L), upwards, Grade 2: 2 (33.3%) n (%) | subjects with at least one AE: 6 (100%) n (%) | subjects with at least one AE for which any study drug or study was permanently stopped: 1 (16.7%) n (%) | subjects with at least one AE for which any study drug or study was temporarily stopped: 0 n (%) | subjects with at least one AE possibly related to any study drug: 2 (33.3%) n (%) | subjects with at least one AE possibly, probably or very likely related to any study drug: 3 (50.0%) n (%) | subjects with at least one AE probably related to any study drug: 1 (16.7%) n (%) | subjects with at least one AE very likely related to any study drug: 1 (16.7%) n (%) | subjects with at least one SAE: 0 n (%) | subjects with at least one fatal AE: 0 n (%) | subjects with at least one grade 1 AE: 5 (83.3%) n (%) | subjects with at least one grade 2 AE: 1 (16.7%) n (%) | subjects with at least one grade 3 or 4 AE: 0 n (%) | subjects with high values for the monocytes/leukocytes ratio (non-graded): 4 (66.7%) n (%) | subjects with low erythrocyte count (non-graded): 3 (50.0%) n (%) | treatment-related AE: Abdominal pain: 0 n (%) | treatment-related AE: Any AE: 3 (50.0%) n (%) | treatment-related AE: Arthralgia: 1 (16.7%) n (%) | treatment-related AE: Dry skin: 1 (16.7%) n (%) | treatment-related AE: Dyspnoea: 1 (16.7%) n (%) | treatment-related AE: Eye disorders: 1 (16.7%) n (%) | treatment-related AE: Gastrointestinal disorders: 1 (16.7%) n (%) | treatment-related AE: Headache: 1 (16.7%) n (%) | treatment-related AE: Nausea: 1 (16.7%) n (%) | treatment-related AE: Nervous system disorders: 1 (16.7%) n (%) | treatment-related AE: Respiratory, thoracic and mediastinal disorders: 1 (16.7%) n (%) | treatment-related AE: Retching: 1 (16.7%) n (%) | treatment-related AE: Retinal exudates: 1 (16.7%) n (%) | treatment-related AE: Skin and subcutaneous tissue disorders: 1 (16.7%) n (%) | vital signs: Respiratory rate (brpm) Grade 1: 4 (66.7%) n (%) | vital signs: SaO2 (%) 95% to <98%: 5 (83.3%) n (%) | vital signs: Standing DBP (mmHg) Grade 1: 2 (33.3%) n (%) | vital signs: Standing DBP (mmHg) Grade 2: 2 (33.3%) n (%) | vital signs: Standing DBP (mmHg) Grade 3: 2 (33.3%) n (%) | vital signs: Standing SBP (mmHg) Grade 1: 3 (50.0%) n (%) | vital signs: Standing SBP (mmHg) Grade 2: 0 n (%) | vital signs: Standing SBP (mmHg) Low: 2 (33.3%) n (%) | vital signs: Standing pulse (bpm) High: 3 (50.0%) n (%) | vital signs: Supine DBP (mmHg) Grade 1: 2 (33.3%) n (%) | vital signs: Supine SBP (mmHg) Grade 1: 1 (16.7%) n (%) | vital signs: Supine SBP (mmHg) Low: 0 n (%) | vital signs: Supine pulse (bpm) Low: 1 (16.7%) n (%) | lab toxicity: LDL cholesterol (mmol/L, direct), upwards, Grade 1 (n = 1 with data): 1 (100.0%) n (%) | lab toxicity: Pancreatic amylase (U/L), upwards, Grade 1 (n = 2 with data): 1 (50.0%) n (%)
